# Laboratory results taken from patent publication US7365069B2, “Pyrimidone derivatives” (Bexel Pharmaceuticals Inc., priority 2002, dated 2008).
# How the values were obtained:
# TNF-α = TNF-α production in LPS-stimulated human whole blood; format: cell-based; details: LPS 4 h
# Method: Tumor Necrosis Factor Alpha (TNF-α)
# This assay determines the effect of test compounds on the production of TNF-α in human whole blood. TNF-α assay is carried out as described by Armin hatzelmann and Christian Schudt (J Pharm Exp Ther 297, 261, 2001). Compounds are tested for their ability to inhibit the activity of TNF-α in human whole blood. The test compounds are pre-incubated for 15 minutes at 37° C. and then stimulated with Lipopolysaccharide (Salmonella abortus equi, 1 μg/ml) for 4 h at 37° C. in 5% CO2. The levels of TNF-α are estimated using Enzyme linked Immunosorbent assay performed in a 96 well format as per the procedure of the manufacturer (Cayman Chemical, Ann Arbor, USA).
# COX-2 = biological target: T1, COX-2 (Homo sapiens, UniProt P35354); assay: Human whole blood assay, COX-2 inhibition (PGE2 ELISA after LPS); format: cell-based; details: LPS 24 h
# T1 construct: incubation of human blood with lipopolysaccharide (LPS), which induces COX-2 production in the blood; endogenous in cells; host or cells: fresh human whole blood from volunteers, treated with aspirin and then LPS
# T1 sequence (P35354 18-604): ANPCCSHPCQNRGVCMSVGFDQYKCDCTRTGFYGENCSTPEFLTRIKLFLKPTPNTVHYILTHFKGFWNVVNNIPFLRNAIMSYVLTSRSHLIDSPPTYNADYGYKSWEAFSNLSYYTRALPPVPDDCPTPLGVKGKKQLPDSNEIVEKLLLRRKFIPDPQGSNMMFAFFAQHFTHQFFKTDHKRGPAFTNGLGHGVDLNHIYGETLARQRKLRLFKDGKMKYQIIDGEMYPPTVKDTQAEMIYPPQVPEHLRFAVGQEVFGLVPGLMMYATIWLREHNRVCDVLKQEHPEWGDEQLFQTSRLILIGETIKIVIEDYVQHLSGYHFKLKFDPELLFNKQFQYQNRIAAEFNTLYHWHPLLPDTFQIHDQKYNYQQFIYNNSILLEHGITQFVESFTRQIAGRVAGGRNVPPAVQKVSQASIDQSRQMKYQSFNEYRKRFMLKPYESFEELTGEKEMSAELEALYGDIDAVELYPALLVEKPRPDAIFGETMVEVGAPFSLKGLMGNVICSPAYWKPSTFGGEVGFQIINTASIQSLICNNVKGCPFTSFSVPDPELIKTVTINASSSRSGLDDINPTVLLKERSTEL
# Method: In Vivo Evaluation of Cyclooxygenase-2 (COX-2) Inhibition Activity
# The COX-2 inhibition activities of the compounds illustrated in the examples are determined by the following method.
# Human whole blood provides a protein and cell rich milieu appropriate for the study of biochemical efficacy of anti-inflammatory compounds such as selective COX-2 inhibitors. […] This is correlating with the observation that COX-2 inhibitors have no effect on prostaglandin E2 (PGE2) production in normal blood. These inhibitors are active only after incubation of human blood with lipopolysaccharide (LPS), which induces COX-2 production in the blood.
# Fresh blood is collected in tubes containing potassium EDTA by vein puncture from make volunteers. The subjects should have no apparent inflammatory conditions and not taken NSAIDs for at least 7 days prior to blood collection. Blood is treated with aspirin in vitro (10 μg/ml, at time zero) to inactivate COX-1, and then with LPS (10 μg/ml) along with test agents or vehicle. The blood is incubated for 24 h at 37° C., after which the tubes are centrifuged, the plasma is separated and stored at −80° C. (J. Pharmacol. Exp. Ther, 271, 1705, 1994; Proc. Natl. Acad. Sci. USA., 96, 7563, 1999). The plasma is assayed for PGE2 using Cayman ELISA kit as per the procedure outlined by the manufacturer (Cayman Chemicals, Ann Arbor, USA).
Compound,melting point [°C],also measured
"CNc1nc(-c2ccc(SC)cc2)n(-c2ccc(C)c(C)c2)c(=O)c1C#N [Example 55, 5-cyano-1-(3,4-dimethylphenyl)-4-(methylamino)-2-[4-(methylthio)phenyl]-6-oxo-1,6-dihydropyrimidine]",199 to 205,inhibition at 1 µM (TNF-α): 54.4%; inhibition at 1 µM (COX-2; 1 μM): 8.2%
"COc1cc(-n2c(-c3ccc(SC)cc3)nc(SC)c(C#N)c2=O)cc(OC)c1OC [Example 13, 5-cyano-1-(3,4,5-trimethoxyphenyl)-4-(methylthio)-2-[4-(methylthio)phenyl]-6-oxo-1,6-dihydropyrimidine]",192 to 195,inhibition at 0.25 µM (COX-2): 33.5%
"Cc1ccc(-n2c(-c3ccc(S(C)(=O)=O)cc3)nc(N3CCOCC3)c(C(N)=O)c2=O)cc1 [Example 47, 5-carboxamido-1-(4-methylphenyl)-2-[4-(methylsulfonyl)phenyl]-4-morpholin-4-yl-6-oxo-1,6-dihydropyrimidine]",226 to 228,
"CSc1nc(-c2ccncc2)n(-c2ccc(C)cc2)c(=O)c1C#N [Example 36, 5-cyano-4-(methylthio)-1-(4-methylphenyl)-6-oxo-2-pyridin-4-yl-1,6-dihydropyrimidine]",> 250,
"Cc1ccc(-n2c(-c3ccc(S(C)(=O)=O)cc3)nc(S(C)(=O)=O)c(C(N)=O)c2=O)cc1 [Example 44, 5-carboxamido-1-(4-methylphenyl)-4-(methylsulfonyl)-2-[4-(methylsulfonyl)phenyl]-6-oxo-1,6-dihydropyrimidine]",260 to 262,
"Cc1ccc(-n2c(-c3ccc(S(C)(=O)=O)cc3)nc(S(C)(=O)=O)c(C(N)=O)c2=O)cc1C [Example 51, 5-carboxamido-1-(3,4-dimethylphenyl)-4-(methylsulfonyl)-2-[4-(methylsulfonyl)phenyl]-6-oxo-1,6-dihydropyrimidine]",245 to 248,
"Cc1ccc(-n2c(-c3ccc(S(C)(=O)=O)cc3)nc(O)c(C#N)c2=O)cc1C [Example 53, 5-cyano-1-(3,4-dimethylphenyl)-4-hydroxy-2-[4-(methylsulfonyl)phenyl]-6-oxo-1,6-dihydropyrimidine]",> 285,
"COc1ccc(-n2c(-c3cccnc3)nc(SC)c(C#N)c2=O)cc1 [Example 40, 5-cyano-4-(methylthio)-1-(4-methoxyphenyl)-6-oxo-2-pyridin-3-yl-1,6-dihydropyrimidine]",230 to 233,
"CSc1ccc(-c2nc(SC)c(C#N)c(=O)n2-c2ccc(C)cc2C)cc1 [Example 19, 5-cyano-1-(2,4-dimethylphenyl)-4-(methylthio)-2-[4-(methylthio)phenyl]-6-oxo-1,6-dihydropyrimidine]",203 to 205,
"CSc1nc(-c2ccccn2)n(-c2ccc(C)c(C)c2)c(=O)c1C#N [Example 32, 5-cyano-4-(methylthio)-1-(3,4-dimethylphenyl)-6-oxo-2-pyridin-2-yl-1,6-dihydropyrimidine]",218 to 223,inhibition at 0.1 µM (TNF-α): 17.9%
"CCc1ccc(-n2c(-c3cccnc3)nc(SC)c(C#N)c2=O)cc1 [Example 38, 5-cyano-4-(methylthio)-1-(4-ethylphenyl)-6-oxo-2-pyridin-3-yl-1,6-dihydropyrimidine]",207 to 209,
"CSc1ccc(-c2nc(SC)c(C#N)c(=O)n2-c2ccc(Br)cc2)cc1 [Example 15, 1-(4-bromophenyl)-5-cyano-4-(methylthio)-2-[4-(methylthio)phenyl]-6-oxo-1,6-dihydropyrimidine]",213 to 215,inhibition at 0.1 µM (TNF-α): 18.4%
"CNc1nc(-c2ccc(S(C)(=O)=O)cc2)n(-c2ccc(C)cc2)c(=O)c1C(N)=O [Example 46, 5-carboxamido-4-(methylamino)-1-(4-methylphenyl)-2-[4-(methylsulfonyl)phenyl]-6-oxo-1,6-dihydropyrimidine]",> 300,
"COc1ccc(-n2c(-c3ccccn3)nc(SC)c(C#N)c2=O)cc1 [Example 31, 5-cyano-4-(methylthio)-1-(4-methoxyphenyl)-6-oxo-2-pyridin-2-yl-1,6-dihydropyrimidine]",246 to 253,inhibition at 0.1 µM (TNF-α): 20.2%
"CCc1ccc(-n2c(-c3ccccn3)nc(SC)c(C#N)c2=O)cc1 [Example 33, 5-cyano-4-(methylthio)-1-(4-ethylphenyl)-6-oxo-2-pyridin-2-yl-1,6-dihydropyrimidine]",172 to 175,
"CSc1nc(-c2ccncc2)n(-c2ccc(C(C)C)cc2)c(=O)c1C#N [Example 37, 5-cyano-4-(methylthio)-1-(4-isopropylphenyl)-6-oxo-2-pyridin-4-yl-1,6-dihydropyrimidine]",173 to 175,
"CCc1ccc(-n2c(-c3ccc(SC)cc3)nc(SC)c(C#N)c2=O)cc1 [Example 14, 5-cyano-1-(4-ethylphenyl)-4-(methylthio)-2-[4-(methylthio)phenyl]-6-oxo-1,6-dihydropyrimidine]",223 to 225,inhibition at 0.25 µM (COX-2): 28.2%
"CSc1nc(-c2ccccn2)n(-c2ccc(C)cc2)c(=O)c1C#N [Example 34, 5-cyano-4-(methylthio)-1-(4-methylphenyl)-6-oxo-2-pyridin-2-yl-1,6-dihydropyrimidine]",247 to 248,
"CSc1nc(-c2cccnc2)n(-c2ccc(C)c(C)c2)c(=O)c1C#N [Example 39, 5-cyano-4-(methylthio)-1-(3,4-dimethylphenyl)-6-oxo-2-pyridin-3-yl-1,6-dihydropyrimidine]",> 250,
"Cc1ccc(-n2c(-c3ccc(S(C)(=O)=O)cc3)nc(N3CCNCC3)c(C(N)=O)c2=O)cc1 [Example 45, 5-carboxamido-1-(4-methylphenyl)-2-[4-(methylsulfonyl)phenyl]-6-oxo-4-piperazin-1-yl-1,6-dihydropyrimidine]",269 to 275,
"CS(=O)(=O)c1ccc(-n2c(-c3ccc(F)cc3)nc(O)c(C#N)c2=O)cc1 [Example 52, 5-cyano-2-(4-fluorophenyl)-4-hydroxy-1-[4-(methylsulfonyl)phenyl]-6-oxo-1,6-dihydropyrimidine]",> 285,
"CCOc1ccc(-n2c(-c3ccncc3)nc(SC)c(C#N)c2=O)cc1 [Example 35, 5-cyano-4-(methylthio)-1-(4-ethoxyphenyl)-6-oxo-2-pyridin-4-yl-1,6-dihydropyrimidine]",201 to 204,
"CS(=O)(=O)c1ccc(-n2c(-c3ccc(F)cc3)nc(S(C)(=O)=O)c(C(N)=O)c2=O)cc1 [Example 48, 5-carboxamido-2-(4-fluorophenyl)-4-(methylsulfonyl)-1-[4-(methylsulfonyl)phenyl]-6-oxo-1,6-dihydropyrimidine]",237 to 241,
"CSc1nc(-c2ccccc2)n(-c2ccc(C)cc2)c(=O)c1C#N [Example 23, 5-cyano-1-(4-methylphenyl)-4-(methylthio)-6-oxo-2-phenyl-1,6-dihydropyrimidine]",258 to 260,
"CCCCc1ccc(-n2c(-c3ccc(SC)cc3)nc(SC)c(C#N)c2=O)cc1 [Example 24, 1-(4-n-butylphenyl)-5-cyano-4-(methylthio)-2-[4-(methylthio)phenyl]-6-oxo-1,6-dihydropyrimidine]",138 to 141,
"CSc1nc(-c2ccncc2)n(-c2ccc(F)cc2)c(=O)c1C#N [Example 25, 5-cyano-1-(4-fluorophenyl)-4-(methylthio)-6-oxo-2-pyridin-4-yl-1,6-dihydropyrimidine]",301 to 303,inhibition at 1 µM (TNF-α): 59.6%
